Non-standard residues stand in square brackets, D forms with d. Residues, ends and D or L forms follow the SMILES beside them. *: point of attachment. Phe(F5) = N[C@@H](Cc1c(F)c(F)c(F)c(F)c1F)C(=O)O; NMeY = CN[C@@H](Cc1ccc(O)cc1)C(=O)O; Agmatine = N=C(N)NCCCCN*; Nle = CCCC[C@H](N)C(=O)O; Orn = NCCC[C@H](N)C(=O)O; Abu = CC[C@H](N)C(=O)O
Columns and labels:
GH release = experiment: GH releasing potency in vivo, subcutaneous administration (Example 14, Table 12); parameters: species or system rat; details: s.c.; for Serum GH level at selected time after injection (ng/ml), 0 min / Serum GH level at selected time after injection (ng/ml), 15 min / Serum GH level at selected time after injection (ng/ml), 30 min: male rats, dose 3 μg/kg, mean ± SEM
Method in brief: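 Potency is expressed relative to GHRH(1-29)NH2 and JI-38 (each = 1), via equivalent GHRH(1-29)NH2 dose read from a standard curve. Peptides in 5% mannitol given i.v. or s.c. to anaesthetised male Sprague-Dawley rats (200-250 g); serum GH measured by ELISA at selected times.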

[1] = system: myocardial infarction (Fisher-344 rats); experiment: Hemodynamic analysis (pressure-volume loops), body and heart weight after MI, compared to JI-38 (Example 15, Table 16); format: in vivo, rat; parameters: key to ESP (End-Systolic Pressure) / EDP (End-Diastolic Pressure) / ESV (End-Systolic Volume) / PRSW (Preload Recruitable Stroke Work) / Ees (End-systolic Elastance) / dP/dt max (peak rate of the pressure rise) / dP/dt max_EDV / dP/dt min / TAU (relaxation time constant calculated by Weiss method) / SV (Stroke Volume) / CO (Cardiac Output) / SW (Stroke Work) / EF / Ea/Ees / Ea (arterial Elastance): ↓: downward arrow denotes lower than JI-38; ↑: upward arrow denotes greater than JI-38; =denotes same as JI-38; ⬇⬇: double arrow denotes greater effect; ⬆⬆: double arrow denotes greater effect; details: rat MI model, s.c. twice daily; pressure-volume loops; expressed in comparison to JI-38
Method in brief: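 Female 6-month-old Fisher-344 rats after permanent left coronary ligation received GHRH agonists subcutaneously twice daily from 2 h post-surgery (n=10/group). Under ketamine/xylazine/acepromazine anesthesia, LV pressure-volume loops were recorded via carotid micromanometer catheter, calibrated by hypertonic saline bolus and cuvette method; echocardiography also serial.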

GHRH receptor = molecular target: T1, GHRH receptor (Homo sapiens, UniProt Q02643); experiment: Receptor binding in vitro, 125I-labeled [His1,Nle27]-hGHRH(1-32)NH2, membrane receptors of human anterior pituitary cells (Table 14); details: for Relative affinity (Binding potency) compared to JI-38: JI-38 = 1; for Relative affinity (Binding potency) compared to hGHRH(1-29): hGHRH(1-29)NH2 = 1
T1 sequence (Q02643 23-423): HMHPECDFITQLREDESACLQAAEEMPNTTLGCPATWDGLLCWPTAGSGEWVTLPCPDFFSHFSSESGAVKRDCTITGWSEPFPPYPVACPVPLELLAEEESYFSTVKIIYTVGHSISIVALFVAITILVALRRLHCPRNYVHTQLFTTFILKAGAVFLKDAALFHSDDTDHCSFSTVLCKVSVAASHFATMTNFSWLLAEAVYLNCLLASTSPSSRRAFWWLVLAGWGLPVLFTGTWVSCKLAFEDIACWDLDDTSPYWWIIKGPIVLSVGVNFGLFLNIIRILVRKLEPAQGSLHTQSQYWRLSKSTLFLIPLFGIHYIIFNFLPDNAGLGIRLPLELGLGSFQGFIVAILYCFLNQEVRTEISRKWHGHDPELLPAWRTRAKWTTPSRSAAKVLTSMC
Excerpt: Normal human pituitary was purchased from the National Hormone and Peptide Program (UCLA Medical Center, Torrance, Calif.).

SMILES: CCCC[C@H](NC(=O)[C@@H](NC(=O)[C@H](CC(=O)O)NC(=O)[C@H](CCC(N)=O)NC(=O)[C@H](CC(C)C)NC(=O)[C@H](CC(C)C)NC(=O)[C@H](CCCN)NC(=O)[C@H](CCCNC(=N)N)NC(=O)[C@H](C)NC(=O)[C@H](CO)NC(=O)[C@H](CC(C)C)NC(=O)[C@H](CCC(N)=O)NC(=O)[C@H](CC)NC(=O)[C@H](CC(C)C)NC(=O)[C@@H](NC(=O)[C@H](CCCN)NC(=O)[C@H](CCCNC(=N)N)NC(=O)[C@H](Cc1ccc(O)cc1)NC(=O)[C@H](CO)NC(=O)[C@H](CCC(N)=O)NC(=O)[C@@H](NC(=O)[C@H](Cc1c(F)c(F)c(F)c(F)c1F)NC(=O)[C@@H](NC(=O)[C@H](C)NC(=O)[C@H](CC(=O)O)NC(=O)[C@@H](C)NC(=O)[C@H](Cc1ccc(O)cc1)NC)[C@@H](C)CC)[C@@H](C)O)C(C)C)[C@@H](C)CC)C(=O)N[C@@H](CC(=O)O)C(=O)N[C@@H](CCCNC(=N)N)C(=O)NC [Peptide P-27404, [N—Me-Tyr^1, D-Ala^2, Fpa5^6, Orn^12, Abu^15, Orn^21, Nle^27, Asp^28]hGHRH (1-29)NH—CH3] (H-[NMeY][dA]DAI[Phe(F5)]TQSYR[Orn]VL[Abu]QLSAR[Orn]LLQDI[Nle]DR-NHMe)
- Serum GH level at selected time after injection (ng/ml), 0 min (GH release): 29.5 ± 3.2 ng/mL
- Serum GH level at selected time after injection (ng/ml), 15 min (GH release): 320.5 ± 32.7 ng/mL
- Serum GH level at selected time after injection (ng/ml), 30 min (GH release): 151 ± 28.5 ng/mL
- Relative potency compared to GHRH(1-29), 15 min (GH release): 97.1
- Relative potency compared to JI-38, 15 min (GH release): 1.54
- Relative potency compared to GHRH(1-29), 30 min (GH release): 148.4
- Relative potency compared to JI-38, 30 min (GH release): 1.33
- CO (Cardiac Output) [1]: ↑
- EDP (End-Diastolic Pressure) [1]: ↑
- EF [1]: ↑
- ESP (End-Systolic Pressure) [1]: =
- ESV (End-Systolic Volume) [1]: =
- Ea (arterial Elastance) [1]: =
- Ea/Ees [1]: =
- Ees (End-systolic Elastance) [1]: =
- PRSW (Preload Recruitable Stroke Work) [1]: =
- SV (Stroke Volume) [1]: ↑
- SW (Stroke Work) [1]: =
- TAU (relaxation time constant calculated by Weiss method) [1]: =
- dP/dt max (peak rate of the pressure rise) [1]: =
- dP/dt max_EDV [1]: =
- dP/dt min [1]: =
- Relative affinity (Binding potency) compared to JI-38 (GHRH receptor): 2.45
- Relative affinity (Binding potency) compared to hGHRH(1-29) (GHRH receptor): 6.83

SMILES: CCCC[C@H](NC(=O)[C@@H](NC(=O)[C@H](CC(=O)O)NC(=O)[C@H](CCC(N)=O)NC(=O)[C@H](CC(C)C)NC(=O)[C@H](CC(C)C)NC(=O)[C@H](CCCN)NC(=O)[C@H](CCCNC(=N)N)NC(=O)[C@H](C)NC(=O)[C@H](CO)NC(=O)[C@H](CC(C)C)NC(=O)[C@H](CCC(N)=O)NC(=O)[C@H](CC)NC(=O)[C@H](CC(C)C)NC(=O)[C@@H](NC(=O)[C@H](CCCN)NC(=O)[C@H](CCCNC(=N)N)NC(=O)[C@H](Cc1ccc(O)cc1)NC(=O)[C@H](CO)NC(=O)[C@H](CC(N)=O)NC(=O)[C@@H](NC(=O)[C@H](Cc1ccccc1)NC(=O)[C@@H](NC(=O)[C@H](C)NC(=O)[C@H](CC(=O)O)NC(=O)[C@@H](C)NC(=O)[C@H](Cc1ccc(O)cc1)NC)[C@@H](C)CC)[C@@H](C)O)C(C)C)[C@@H](C)CC)C(=O)N[C@@H](CC(=O)O)C(=O)NCCCCNC(=N)N [Peptide P-20367, [N—Me-Tyr^1, D-Ala^2, Orn^12, Abu^15, Orn^21, Nle^27, Asp^28, Agm^29]hGHRH(1-29)NH2] (H-[NMeY][dA]DAIFTNSYR[Orn]VL[Abu]QLSAR[Orn]LLQDI[Nle]D-Agmatine)
- Serum GH level at selected time after injection (ng/ml), 0 min (GH release): 41.1 ± 5.6 ng/mL
- Serum GH level at selected time after injection (ng/ml), 15 min (GH release): 244.0 ± 25.1 ng/mL
- Serum GH level at selected time after injection (ng/ml), 30 min (GH release): 141.2 ± 12.3 ng/mL
- Relative potency compared to GHRH(1-29), 15 min (GH release): 68.1
- Relative potency compared to JI-38, 15 min (GH release): 1.08
- Relative potency compared to GHRH(1-29), 30 min (GH release): 131.7
- Relative potency compared to JI-38, 30 min (GH release): 1.18
- CO (Cardiac Output) [1]: ↑
- EDP (End-Diastolic Pressure) [1]: ↑
- EF [1]: =
- ESP (End-Systolic Pressure) [1]: ↑
- ESV (End-Systolic Volume) [1]: ↑
- Ea (arterial Elastance) [1]: =
- Ea/Ees [1]: ↓
- Ees (End-systolic Elastance) [1]: =
- PRSW (Preload Recruitable Stroke Work) [1]: =
- SV (Stroke Volume) [1]: =
- SW (Stroke Work) [1]: ↓
- TAU (relaxation time constant calculated by Weiss method) [1]: =
- dP/dt max (peak rate of the pressure rise) [1]: =
- dP/dt max_EDV [1]: =
- dP/dt min [1]: =
- Relative affinity (Binding potency) compared to JI-38 (GHRH receptor): 2.51
- GHRH receptor binding affinity (in words) (GHRH receptor; compared to JI-38): improved receptor binding affinity
- Relative affinity (Binding potency) compared to hGHRH(1-29) (GHRH receptor): 7.01
